According to US9561212B2, “Hepatitis C virus inhibitors” (BRISTOL-MYERS SQUIBB COMPANY, priority 2012, dated 2017):
Where two headings read alike, the source gives them in different places.

Tested on: HCV 1b genotype
Test: microbe, parasite or virus in culture
Format: cell-based, Hepatitis C virus
Protocol: An HCV Replicon assay was utilized in the present disclosure, and was prepared, conducted and validated as described in commonly owned PCT/US2006/022197 and in O'Boyle et. al. Antimicrob Agents Chemother. 2005 April; 49(4):1346-53. Assay methods incorporating luciferase reporters have also been used as described (Apath.com).
HCV-neo replicon cells and replicon cells containing resistance substitutions in the NS5A region were used to test the currently described family of compounds.

[1] = Hepatitis C virus, HCV 1b replicon, read-out: Range: EC50 ranges against HCV 1b
[2] = Hepatitis C virus, HCV 1b replicon, read-out: 1b (μM): EC50 (Effective 50% inhibitory concentration) against the HCV 1b genotype
[3] = HCV 1b replicon, read-out: Range: EC50 ranges against HCV 1b

Compound	EC50 [1]	other results
COC(=O)N[C@H](C(=O)N1[C@@H](C)CC[C@H]1c1ncc(-c2ccc(-c3ccc(-c4cnc([C@@H]5CC[C@H](C)N5C(=O)[C@@H](NC(=O)OC)[C@H]5C[C@H](C)O[C@@H](C6CC6)C5)[nH]4)cc3)cc2)[nH]1)[C@H]1C[C@H](C)O[C@@H](C2CC2)C1 [Example 9.3, dimethyl ((S,R,S,1S,1′S)-((2S,2′S,5S,5′S)-5,5′-(5,5′-([1,1′-biphenyl]-4,4′-diyl)bis(1H-imidazole-5,2-diyl))bis(2-methylpyrrolidine-5,1-diyl))bis(1-((2R,4S,6S)-2-cyclopropyl-6-methyltetrahydro-2H-pyran-4-yl)-2-oxoethane-2,1-diyl))dicarbamate]	0.00501 to 0.1 nM	
COC(=O)N[C@H](C(=O)N1[C@@H](C)CC[C@H]1c1nc(-c2ccc(-c3ccc(-c4c[nH]c([C@@H]5CC[C@H](C)N5C(=O)[C@@H](NC(=O)OC)C56CC(C(F)(F)F)(C5)C6)n4)cc3)cc2)c[nH]1)C12CC(C(F)(F)F)(C1)C2 [OL12, dimethyl (4,4′-biphenyldiylbis(1H-imidazole-4,2-diyl((2S,5S)-5-methyl-2,1-pyrrolidinediyl)((1S)-2-oxo-1-(3-(trifluoromethyl)bicyclo [1.1.1]pent-1-yl)-2,1-ethanediyl)))biscarbamate]	0.1 to 0.9 nM	
COC(=O)NC(C(=O)N1[C@@H]2C[C@@H]2C[C@H]1c1nc(-c2ccc(-c3ccc(-c4c[nH]c([C@@H]5C[C@H]6C[C@H]6N5C(=O)C(NC(=O)OC)[C@H]5C[C@@H]6C[C@@H]6C5)n4)cc3)cc2)c[nH]1)[C@H]1C[C@@H]2C[C@@H]2C1 (single isomer, unassigned; diastereomer 3) [QC5.3]	0.00501 to 0.1 nM	EC50 [2]: 0.00555 nM
COC(=O)N[C@H](C(=O)N1[C@@H](C)CC[C@H]1c1ncc(-c2ccc(-c3ccc(-c4cnc([C@@H]5CC[C@H](C)N5C(=O)[C@@H](NC(=O)OC)[C@@H]5CCO[C@@H](C6CC6)C5)[nH]4)cc3)cc2)[nH]1)[C@@H]1CCO[C@@H](C2CC2)C1 [Example 6]	0.00501 to 0.1 nM	
COC(=O)NC(C(=O)N1[C@@H]2C[C@@H]2C[C@H]1c1nc(-c2ccc(-c3ccc(-c4c[nH]c([C@@H]5C[C@H]6C[C@H]6N5C(=O)C(NC(=O)OC)C5[C@H]6COC[C@@H]56)n4)cc3)cc2)c[nH]1)C1[C@H]2COC[C@@H]12 (single isomer, unassigned; diastereomer 1) [QC4.1]		EC50 [3]: 0.00501 to 0.1 nM
COC(=O)NC(C(=O)N1[C@@H]2C[C@@H]2C[C@H]1c1nc(-c2ccc(-c3ccc(-c4c[nH]c([C@@H]5C[C@H]6C[C@H]6N5C(=O)C(NC(=O)OC)C5C[C@@H]6[C@H](C5)C6(F)F)n4)cc3)cc2)c[nH]1)C1C[C@@H]2[C@H](C1)C2(F)F (single isomer, unassigned; diastereomer 2) [QC2.2]		EC50 [3]: 0.00501 to 0.1 nM
COC(=O)NC(C(=O)N1[C@@H](C)CC[C@H]1c1ncc(-c2ccc(-c3ccc(-c4cnc([C@@H]5CC[C@H](C)N5C(=O)C(NC(=O)OC)C5CC6(CC6)C5)[nH]4)cc3)cc2)[nH]1)C1CC2(CC2)C1 (stereo partly shown) [Example 5.2]	0.9 to 700 nM	EC50 [2]: 9.07 nM
COC(=O)N[C@@H](C(=O)N1[C@@H]2C[C@@H]2C[C@H]1c1nc(-c2ccc(-c3ccc(-c4c[nH]c([C@@H]5C[C@H]6C[C@H]6N5C(=O)[C@H](NC(=O)OC)[C@H]5C[C@H]6C[C@H]6C5)n4)cc3)cc2)c[nH]1)[C@H]1C[C@H]2C[C@H]2C1 (single isomer, unassigned; diastereomer 3) [QC3.3]		EC50 [3]: 0.1 to 0.9 nM
COC(=O)NC(C(=O)N1CCC[C@H]1c1nc(-c2ccc(-c3c[nH]c([C@@H]4CCCN4C(=O)C(NC(=O)OC)C4CCOC5(CC5)C4)n3)cc2)c[nH]1)C1CCOC2(CC2)C1 (stereo partly drawn) [Example QC14, dimethyl (benzene-1,4-diylbis(1H-imidazole-4,2-diyl(2S)pyrrolidine-2,1-diyl(1-(4-oxaspiro[2.5]oct-7-yl)-2-oxoethane-2,1-diyl)))biscarbamate]	0.9 to 700 nM	EC50 [2]: 14.5 nM
COC(=O)N[C@H](C(=O)N1[C@@H](C)CC[C@H]1c1ncc(-c2ccc(-c3ccc(-c4cnc([C@@H]5CC[C@H](C)N5C(=O)[C@@H](NC(=O)OC)[C@H]5C[C@@H](C)O[C@H](C6CC6)C5)[nH]4)cc3)cc2)[nH]1)[C@H]1C[C@@H](C)O[C@H](C2CC2)C1 [Example 9.4, dimethyl ((R,S,S,1S,1′S)-((2S,2′S,5S,5′S)-5,5′-(5,5′-([1,1′-biphenyl]-4,4′-diyl)bis(1H-imidazole-5,2-diyl))bis(2-methylpyrrolidine-5,1-diyl))bis(1-((2S,4S,6R)-2-cyclopropyl-6-methyltetrahydro-2H-pyran-4-yl)-2-oxoethane-2,1-diyl))dicarbamate]	0.00501 to 0.1 nM	EC50 [2]: 0.0093 nM
COC(=O)N[C@H](C(=O)N1C(CO)CCC1c1ncc(-c2ccc(-c3ccc(-c4cnc(C5CCC(CO)N5C(=O)[C@@H](NC(=O)OC)C5C[C@@H](C)O[C@H](C)C5)[nH]4)cc3)cc2)[nH]1)C1C[C@@H](C)O[C@H](C)C1 (single isomer, unassigned) [Example 11.1]	0.9 to 700 nM	
COC(=O)NC(C(=O)N1[C@@H](C)CC[C@H]1c1ncc(-c2ccc(-c3ccc(-c4cnc([C@@H]5CC[C@H](C)N5C(=O)C(NC(=O)OC)C5CCOC6(CCCC6)C5)[nH]4)cc3)cc2)[nH]1)C1CCOC2(CCCC2)C1 (single isomer, unassigned) [Example 3.1]		EC50 [3]: 0.9 to 700 nM
COC(=O)N[C@H](C(=O)N1[C@@H](C)CC[C@H]1c1ncc(-c2ccc(-c3ccc(-c4cnc([C@@H]5CC[C@H](C)N5C(=O)[C@@H](NC(=O)OC)C5CC6(COC6)C5)[nH]4)cc3)cc2)[nH]1)C1CC2(COC2)C1 (stereo partly drawn) [Example 13, dimethyl (4,4′-biphenyldiylbis(1H-imidazole-5,2-diyl((2S,5S)-5-methyl-2,1-pyrrolidinediyl)((1S)-1-(2-oxaspiro[3.3]hept-6-yl)-2-oxo-2,1-ethanediyl)))biscarbamate]	0.00501 to 0.1 nM	
COC(=O)NC(C(=O)N1[C@@H](C)CC[C@H]1c1ncc(-c2ccc(-c3ccc(-c4cnc([C@@H]5CC[C@H](C)N5C(=O)C(NC(=O)OC)C5CCOC6(CCC6)C5)[nH]4)cc3)cc2)[nH]1)C1CCOC2(CCC2)C1 (single isomer, unassigned) [Example 2.3]		EC50 [2]: 0.00488 nM
COC(=O)N[C@H](C(=O)N1[C@@H](C)CC[C@H]1c1ncc(-c2ccc(-c3ccc(-c4cnc([C@@H]5CC[C@H](C)N5C(=O)[C@@H](NC(=O)OC)[C@@H]5CCO[C@H](C6CC6)C5)[nH]4)cc3)cc2)[nH]1)[C@@H]1CCO[C@H](C2CC2)C1 [Example 7]	0.00501 to 0.1 nM	
COC(=O)NC(C(=O)N1C(c2nc(Cl)c(-c3ccc(-c4ccc(-c5[nH]c(C6CC7CC7N6C(=O)C(NC(=O)OC)C6CCOC7(CC7)C6)nc5Cl)cc4)cc3)[nH]2)CC2CC21)C1CCOC2(CC2)C1 [OL5, dimethyl (((1R,1′R,3S,3′S,5R,5′R)-3,3′-(5,5′-([1,1′-biphenyl]-4,4′-diyl)bis(4-chloro-1H-imidazole-5,2-diyl))bis(2-azabicyclo[3.1.0]hexane-3,2-diyl))bis(2-oxo-1-(4-oxaspiro[2.5]octan-7-yl)ethane-2,1-diyl))dicarbamate]		EC50 (read-out: Range: EC50 ranges against HCV 1b): 0.00501 to 0.1 nM
COC(=O)NC(C(=O)N1C(c2nc(-c3ccc(-c4ccc(-c5c[nH]c([C@@H]6CC[C@H](C)N6C(=O)C(NC(=O)OC)C6CCC7(CC7)OC6)n5)cc4)cc3)c[nH]2)CC[C@@H]1C)C1CCC2(CC2)OC1 (stereo partly shown) [Example 1.1]	0.00501 to 0.1 nM	
dimethyl (1H,1′H-7,7′-binaphtho[1,2-d]imidazole-2,2′-diylbis((2S)-2,1-pyrrolidinediyl(1-(4-oxaspiro[2.5]oct-7-yl)-2-oxo-2,1-ethanediyl)))biscarbamate [QC13]		EC50 [3]: 0.00501 to 0.1 nM
